Assay results as given in ChEMBL document CHEMBL1136270 (Bioorg Med Chem Lett, 2003).

The molecules below were run on THP-1 (assay: Anti human TNF-alpha activity determined through TNF-alpha release was measured in the supernatants by ELISA; not active at a concentration of <10 uM).
Type: functional, cell-based

| IC50 | SMILES |
| --- | --- |
| Not Active | CC(C)(C)OC(=O)N1CCN(c2cc3c(nc2Sc2ccc(F)cc2F)CNC(=O)N3c2c(Cl)cccc2Cl)CC1 |
| Not Active | CC(C)(C)OC(=O)N1CC2CC1CN2c1cc2c(nc1Sc1ccc(F)cc1F)CNC(=O)N2c1c(Cl)cccc1Cl (configuration not stated) |

Each molecule was assayed on THP-1 (assay: Anti human TNF-alpha activity determined through TNF-alpha release was measured in the supernatants by ELISA.; not active at a concentration of <10 uM).
Type: functional, cell-based

| IC50 | SMILES |
| --- | --- |
| Not Active | O=C1NCc2nc(Sc3ccc(F)cc3F)c(Br)cc2N1c1c(Cl)cccc1Cl |

Each molecule was assayed against MAP kinase p38 (Mus musculus, UniProt P47811+O08911+Q9WUI1+Q9Z1B7) (assay: Inhibitory activity against mouse Mitogen-activated protein kinase p38).
Type: protein assay

| SMILES | IC50 |
| --- | --- |
| CN(C)CCN1CCN(c2cc3c(nc2Sc2ccc(F)cc2F)CNC(=O)N3c2c(Cl)cccc2Cl)CC1 | 0.6 nM |
| CC(C)(C)OC(=O)N1CCN(c2cc3c(nc2Sc2ccc(F)cc2F)CNC(=O)N3c2c(Cl)cccc2Cl)CC1 | 25 nM |
| O=C1NCc2nc(Sc3ccc(F)cc3F)c(N3CCCCC3)cc2N1c1c(Cl)cccc1Cl | 4.2 nM |
| O=C1NCc2nc(Sc3ccc(F)cc3F)c(OC3CCNCC3)cc2N1c1c(Cl)cccc1Cl | 11 nM |
| O=C1NCc2nc(Sc3ccc(F)cc3F)c(N3CCC(CCN4CCCC4)CC3)cc2N1c1c(Cl)cccc1Cl | 6 nM |
| O=C1NCc2nc(Sc3ccc(F)cc3F)c(NC3CCNCC3)cc2N1c1c(Cl)cccc1Cl | 4 nM |
| O=C1NCc2nc(Sc3ccc(F)cc3F)c(Br)cc2N1c1c(Cl)cccc1Cl | 16 nM |
| CCN1CC2CC1CN2c1cc2c(nc1Sc1ccc(F)cc1F)CNC(=O)N2c1c(Cl)cccc1Cl (configuration not stated) | 9 nM |
| O=C1NCc2nc(Sc3ccc(F)cc3F)c(N3CC4CC3CN4)cc2N1c1c(Cl)cccc1Cl (configuration not stated) | 0.6 nM |
| O=C1NCc2nc(Sc3ccc(F)cc3F)c(N3CCOCC3)cc2N1c1c(Cl)cccc1Cl | 2 nM |
| O=C1NCc2nc(Sc3ccc(F)cc3F)c(N3CCNCC3)cc2N1c1c(Cl)cccc1Cl | 2 nM |

Next, values leading:

| IC50 | SMILES |
| --- | --- |
| 3 nM | CC1CN(c2cc3c(nc2Sc2ccc(F)cc2F)CNC(=O)N3c2c(Cl)cccc2Cl)CC(C)O1 (configuration not stated) |
| 2 nM | CC(C)N1CC2CC1CN2c1cc2c(nc1Sc1ccc(F)cc1F)CNC(=O)N2c1c(Cl)cccc1Cl (configuration not stated) |
| 1.1 nM | O=C1NCc2nc(Sc3ccc(F)cc3F)c(N3CCN(CCN4CCCC4)CC3)cc2N1c1c(Cl)cccc1Cl |
| 3 nM | O=C1NCc2nc(Sc3ccc(F)cc3F)c(N3CC4CC3CN4CC3CC3)cc2N1c1c(Cl)cccc1Cl (configuration not stated) |
| 7 nM | CC(C)N1CCN(c2cc3c(nc2Sc2ccc(F)cc2F)CNC(=O)N3c2c(Cl)cccc2Cl)CC1 |
| 3 nM | O=C1NCc2nc(Sc3ccc(F)cc3F)c(N3CC4CC3CN4C3CC3)cc2N1c1c(Cl)cccc1Cl (configuration not stated) |
| 44 nM | CC(C)(C)OC(=O)N1CC2CC1CN2c1cc2c(nc1Sc1ccc(F)cc1F)CNC(=O)N2c1c(Cl)cccc1Cl (configuration not stated) |
| 5.3 nM | O=C1NCc2nc(Sc3ccc(F)cc3F)c(N3CC4CCC3C4)cc2N1c1c(Cl)cccc1Cl (configuration not stated) |
